Source: patent US9487540B2, “Compound for inhibiting the growth and proliferation of human liver cancer cells and method for synthesizing it” (priority 2015, dated 2016)
Values after ≈ are worked out from the molar mass of the structure shown.

What was measured:
[1] = Cytotoxicity evaluation using viability assay (crystal violet colorimetric method); type: cell-based, human; conditions: human, HepG2 cells, 48 hours; for viability at 48 h, 1.56 μg: HepG2, sample conc. 1.56 μg; for viability at 48 h, 3.125 μg: HepG2, sample conc. 3.125 μg; for viability at 48 h, 6.25 μg: HepG2, sample conc. 6.25 μg; for viability at 48 h, 12.5 μg: HepG2, sample conc. 12.5 μg; for viability at 48 h, 25 μg: HepG2, sample conc. 25 μg; for viability at 48 h, 50 μg: HepG2, sample conc. 50 μg
Excerpt: (§1) HepG2 cells (human cell line of a well differentiated hepatocellular carcinoma isolated from a liver biopsy of a person) were obtained from the American Type Culture Collection (ATCC). The chemicals used were: Dimethyl sulfoxide (DMSO), crystal violet and trypan blue dye, purchased from Sigma, St. Louis, Mo., USA; DMEM, RPMI-1640, FBS, HEPES buffer solution, L-glutamine, gentamycin and 0.25% Trypsin-EDTA, purchased from BioWhittaker®, Lonza, Belgium; and Crystal violet stain (1%), composed of 0.5% (w/v) crystal violet and 50% methanol, made up to volume with ddH20 and filtered through a Whatmann No. I filter paper.
(§2) In the cytotoxicity assay, the cells were propagated in Dulbecco's modified Eagle's medium (DMEM) supplemented with 10% heat-inactivated fetal bovine serum, 1% L-glutamine, HEPES buffer and 50 μg/ml gentamycin. All cells were maintained at 37° C. in a humidified atmosphere with 5% CO2 and were subcultured two times a week.
(§3) Cell toxicity was monitored by determining the effect of the test samples on cell morphology and cell viability.
(§4) For cytotoxicity assay, the cells were seeded in a 96-well plate at a cell concentration of 1×10^4 cells per well in 100 μl of growth medium. Fresh medium containing different concentrations of the test sample was added after 24 hours following seeding. Serial two-fold dilutions of the tested chemical compound were added to confluent cell monolayers dispensed into 96-well, flat-bottomed microtiter plates (Falcon, N.J., USA) using a multichannel pipette. The microtiter plates were incubated at 37° C. in a humidified incubator with 5% CO2 for a period of 48 hours. Three wells were used for each concentration of the test sample. Control cells were incubated without test sample and with or without DMSO. The little percentage of DMSO present in the wells (maximal 0.1%) was found not to affect the experiment. After incubation of the cells for 24 hours at 37° C., various concentrations of sample (50, 25, 12.5, 6.25, 3.125 & 1.56 μg) were added, and the incubation was continued for 48 hours and viable cells yield was determined by a colorimetric method.
(§5) In brief, after the end of the incubation period, media were aspirated and the crystal violet solution (1%) was added to each well for at least 30 minutes. The stain was removed and the plates were rinsed using tap water until all excess stain was removed. Glacial acetic acid (30%) was then added to all wells and mixed thoroughly and then the absorbance of the plates was measured after being gently shaken on a Microplate reader (TECAN, Inc.), using a test wavelength of 490 nm. All results were corrected for background absorbance detected in wells without added stain. Treated samples were compared with the cell control in the absence of the tested compound. All experiments were carried out in triplicate.
(§6) The cell cytotoxic effect of tested compound was calculated according to the rapid colorimetric assay for cellular growth and survival: application to proliferation and cytotoxicity assay, published by T. Mosmann in the Journal of Immunology Methods, 1983, 65:55-63; and the antiviral activity of medicinal plants of Nilgriris, published by P. Vijayan et al. in the Indian Journal of Medical Research, 2004, 120: 24-29.

[2] = as above; type: cell-based; conditions: human, HepG2 cells; for viability at 48 h, 0.78 μg: HepG2, sample conc. 0.78 μg
[3] = system: HepG2 (Hepatocellular carcinoma cells); experiment: as above; type: cell-based, human; conditions: Homo sapiens, 48 hours incubation, read-out: inhibition concentration value (IC50)
Excerpt: as §1, §2, §3, §4, §5, §6

| melting point | Structure (SMILES) | viability at 48 h, 1.56 μg [1] | viability at 48 h, 3.125 μg [1] | viability at 48 h, 6.25 μg [1] | viability at 48 h, 12.5 μg [1] | viability at 48 h, 25 μg [1] | viability at 48 h, 50 μg [1] | viability at 48 h, 0.78 μg [2] | IC50 [3] | viability at 48 h, 0.39 μg ([2]; HepG2, sample conc. 0.39 μg) |
| --- | --- | --- | --- | --- | --- | --- | --- | --- | --- | --- |
| – | COc1cccc2c1C(=O)c1c(O)c3c(c(O)c1C2=O)C[C@@](O)(C(=O)CO)C[C@@H]3O[C@H]1C[C@H](N)[C@H](O)[C@H](C)O1 [Doxorubicin, reference compound] | 48.2% | 30.3% | 21% | 16.9% | 14.3% | 10.9% | 57.4% | – | – |
| – | O=c1[nH]c(Nc2ccc([N+](=O)[O-])cc2)nc2sc3c(c12)CCCCC3 [Compound III, 2-((4-Nitrophenyl)amino)-6,7,8,9-tetrahydro-3H-cyclohepta[4,5]thieno[2,3-d]pyrimidin-4(5H)-one] | 36.9% | 23.7% | 18.5% | 14.4% | 10.2% | 6.32% | 47.1% | 0.7 µg/mL (≈ 1.96 µM) | 60.8% |
| 298 °C | O=c1[nH]c(Nc2ccc([N+](=O)[O-])cc2)nc2sc3c(c12)CCCCC3 (hydrate or solvate) [Compound III, 2-((4-Nitrophenyl)amino)-6,7,8,9-tetrahydro-3H-cyclohepta[4,5]thieno[2,3-d]pyrimidin-4(5H)-one] | – | – | – | – | – | – | – | – | – |
